From patent US7060733B2, “Methods for treating pancreatitis with curcumin compounds and inhibitors of reactive oxygen species” (The Regents of the University of California, priority 2002, dated 2006) come the findings set out here.

One assay deals with NF-κB. The experiment in a line: CCK-induced NF-κB activation in isolated pancreatic acinar cells (EMSA). The assay is classed as cell-based, rat. On the procedure:
To confirm that the effects of curcumin occur in the pancreatic acinar cell, the effects of curcumin on the activation of NF-κB and AP-1 in vitro in CCK-stimulated pancreatic acini. Pancreatic acini were prepared from rat pancreas using the collagenase digestion method as described by Pandol S J, et al. (1982) J. Biol. Chem. 257:12024–12029, which is herein incorporated by reference, and then incubated at 37° C. in 199 medium (GIBCO, Rockville, Md.) known in the art. See Blinman T A, et al. (2000); Gukovskaya A S, et al. (1997); Gulkovsky I, et al. (1998); and Zaninovic V, et al. (2000).
EMSAs for NF-κB and AP-1 were performed on nuclear proteins extracted from each sample as provided above.
Nuclear protein extracts were prepared by methods known in the art. See Blinman T A, et al. (2000); Gukovskaya A S, et al. (1997); Gukovsky I, et al. (1998); Pandol S J, et al. (1999); Vaquero E, et al. (2001); and Zaninovic V, et al. (2000). Briefly, samples of pancreatic tissue or isolated acini were rinsed in ice-cold PBS and homogenized in hypotonic Buffer A (20 mM β-glycerophosphate, 10 mM HEPES, pH 7.6, 1.5 mM MgCl2, 10 mM KCl, 10 mM Na2MoO4, 0.1 mM Na3VO4, 1 mM dithiothreitol (DTT), 1 mM phenylmethylsulfonyl fluoride (PMSF), 5 μg/ml each of protease inhibitors pepstatin, leupeptin, chymostatin, antipain and aprotinin). […]
For orientation: In EMSA bound probe runs differently from free probe, usually more slowly.

Assay [1] has as its system neutrophil infiltration of pancreatic tissue. The experiment in a line: Neutrophil infiltration assay of pancreatic tissue. The assay is classed as in vivo. As to conditions: rat. On the procedure: Neutrophil infiltration of pancreatic tissue was examined using methods known in the art. See Gukovskaya A S, et al. (1997); Gukovskaya A S, et al. (2002); Pandol S J, et al. (1999); Sandoval D, et al. (1996); and Vaquero E, et al. (2001). The pancreas was cut into about 2 to about 3 mm pieces and fixed in 4% paraformaldehyde for 2 hours. The tissue was then frozen in liquid nitrogen. 8-μm-thick serial cryostat sections of pancreatic tissue from control samples and test samples from Examples 1 and 2 were cut and mounted on glass slides. The slides were placed in phosphate buffered saline (PBS) for 5 minutes. This was repeated twice. Then the slides were transferred into blocking buffer (PBS containing 5% (wt/vol) goat serum, 0.5% bovine serum albumin (wt/vol) and 0.1% gelatin(wt/vol) for 1 hour at room temperature. Then the slides incubated with FITC-conjugated rabbit anti-rat neutrophil antibody (Accurate, Westbury, N.Y.) (diluted 1:120 in the blocking buffer) for 3 hours at room temperature. The slides were the transferred into the blocking buffer, incubated for 5 minutes, and repeated 4 times. Finally, coverslips were mounted over the tissue samples on the slide with the addition of anti-fading medium. The number of infiltrating neutrophils was obtained by counting the neutrophils at 40× magnification in an average of 50 fields covering at least about 1,000 acinar cells. For each sample, neutrophil numbers were expressed as a percentage of acinar cells.

The next assay relates to AP-1. The assay can be described thus: CCK-induced AP-1 activation in isolated pancreatic acinar cells (EMSA). Format: cell-based, rat.
[2] abbreviates: 1 h with compound, then 0.1 μM CCK 30 min.

Entries after “also recorded” stand apart in the source; their conditions may differ.

Description for AP-1: To confirm that the effects of curcumin occur in the pancreatic acinar cell, the effects of curcumin on the activation of NF-κB and AP-1 in vitro in CCK-stimulated pancreatic acini. Pancreatic acini were prepared from rat pancreas using the collagenase digestion method as described by Pandol S J, et al. (1982) J. Biol. Chem. 257:12024–12029, which is herein incorporated by reference, and then incubated at 37° C. in 199 medium (GIBCO, Rockville, Md.) known in the art. […] EMSAs for NF-κB and AP-1 were performed on nuclear proteins extracted from each sample as provided above. Nuclear protein extracts were prepared by methods known in the art. […] Briefly, samples of pancreatic tissue or isolated acini were rinsed in ice-cold PBS and homogenized in hypotonic Buffer A (20 mM β-glycerophosphate, 10 mM HEPES, pH 7.6, 1.5 mM MgCl2, 10 mM KCl, 10 mM Na2MoO4, 0.1 mM Na3VO4, 1 mM dithiothreitol (DTT), 1 mM phenylmethylsulfonyl fluoride (PMSF), 5 μg/ml each of protease inhibitors pepstatin, leupeptin, chymostatin, antipain and aprotinin). After incubating on ice for about 20 to about 25 minutes, the nonionic detergent Igepal CA-630 (Sigma, St. Louis, Mo.) was added to a final concentration of 0.3 to 0.4% (v/v), followed by an additional incubation on ice for about 1 to about 2 minutes. The crude nuclear pellet was collected by microcentrifugation for 30 seconds. The supernatant (cytosolic protein) was removed, and the nuclear pellet was resuspended in the high-salt buffer C (25% glycerol, 20 mM β-glycerophosphate, 10 mM HEPES, 1.5 mM MgCl2, 420 mM NaCl, 0.2 mM EDTA, 10 mM Na2MoO4, 0.1 mM Na3VO4, 1 mM DTT, 1 mM PMSF, 5 μg/ml each of protease inhibitors pepstatin, leupeptin, chymostatin, antipain and aprotinin. After rotating at 4° C. for up to 1 hour, nuclear membranes were pelleted by microcentrifugation for 10 minutes, and the clear supernatant (nuclear extract) was aliquoted and stored at −80° C. Protein concentration in the nuclear extract was determined by the Bio-Rad protein assay (Bio-Rad Laboratories, Hercules, Calif.).

On to `COc1cc(/C=C/C(=O)CC(=O)/C=C/c2ccc(O)c(OC)c2)ccc1O` [curcumin], for which the “CCK-induced activation of NF-κB in isolated acinar cells” value with NF-κB (setting [2]) is “inhibits; also recorded: abolished; also recorded: blocked; also recorded: attenuates; also recorded: not highly potent”. Besides, the “basal NF-κB binding activity in acinar cells” value with NF-κB (control cells, incubated without CCK) is given as “inhibited”. Besides, the “inhibition of neutrophil infiltration in the pancreas” value in assay [1] (cerulein pancreatitis) and in assay [1] (ethanol/CCK pancreatitis) was “greater than 50%” each time. For the same compound, the “neutrophil infiltration versus pancreatitis without curcumin” value in assay [1] (cerulein pancreatitis) and in assay [1] (ethanol/CCK pancreatitis) was “significantly lower; also recorded: significantly inhibited” in each case. Moreover, the “CCK-induced activation of AP-1 in isolated acinar cells” value with AP-1 (setting [2]) was “inhibits; also recorded: abolished; also recorded: blocked; also recorded: attenuates”. Moreover, the “basal AP-1 binding activity in acinar cells” value in the assay with AP-1 (isolated acinar cells without CCK) is “inhibited”.
